Results as given in patent publication US7816074B2, “α4 β2 δGABA-A receptors as a strategy for PMS and alcoholism” (priority 2003, dated 2010).

Columns and labels:
[1] = test system: GABAR of acutely dissociated CA1 hippocampal pyramidal neurons; assay: Whole cell patch clamp, lorazepam modulation and decay of GABA-gated current after steroid/ethanol treatment; assay type: cell-based, rat
Experimental: (§1) Animals were administered steroids using one of two protocols: (i) For the 48 hour steroid administration protocol, animals were injected with 10 mg/kg 3α, 5β THP in oil, i.p., on a daily basis for three days and sacrificed 1-2 hour following the final injection. Controls were injected with oil vehicle. […] At this time, the capsule was removed and the animals were injected with 17 β estradiol (2 μgs/animal) in order to reset their cycle. Animals were sacrificed 24 hours later. […] In all cases, implantation and removal of capsules were performed under halothane anesthesia. […] Therefore, this study employed the 5β isomer of the steroid.
(§2) In some groups of animals, either ethanol (0.5 g/kg in saline) or saline vehicle was administered i.p. (3×, every 40 minutes) for the final 2 hours of the respective steroid administration or withdrawal paradigm. The use of multiple injections of low doses of ethanol would approximate ethanol consumption in the human more closely than would a single injection. For the 48 hour steroid administration paradigm, animals received their first ethanol injection immediately after the steroid injection, and subsequent injections at 40 minute intervals. In all cases, animals were sacrificed 40 minutes after the final ethanol injection (2 hours after the first ethanol injection and final steroid injection). All animal protocols were carried out with the approval of the Institutional Animal Care and Use Committee.
Currents were recorded using an Axopatch 1D amplifier (Axon Instruments) filtered at 2 kHz (four-pole Bessel filter) and detected at 500 Hz (pClamp 5.1).

α4β2δ GABAA receptors [2] = molecular target: T1, α4β2δ GABAA receptors (UniProt O14764+P63138+Q9D6F4); assay: Two-electrode voltage-clamp of recombinant GABAA receptors in oocytes; assay type: cell-based
T1 construct: expressed in transfected cells

[3] = test system: GABAA receptors of acutely isolated CA1 hippocampal pyramidal cells; assay: Whole cell patch clamp, ethanol or THIP effect on GABA-gated current; assay type: cell-based, rat; details: after progesterone withdrawal
Experimental: Pyramidal neurons were acutely dissociated from CA1 hippocampus and GABA-gated Cl^− currents analyzed using whole cell patch clamp procedures as previously described (67). Briefly, tissue was digested at 32° C. for 50-60 minutes under 100% O2 in PIPES-buffered saline containing (in mM): NaCl 120, KCl 5, CaCl2 1, MgCl2 1, D-glucose 25, PIPES 20 and trypsin (type XI, sigma) 0.8 mg/ml, pH 7.0. After 1 hour of enzyme-free incubation at room temperature, tissue was dissociated by trituration in 1 ml of 20 mM HEPES-buffered DMEM which was replaced by recording medium after transfer to the recording chamber. GABA-gated currents were recorded at room temperature (20-25° C.) at a holding potential of −50 mV in a bath containing (in mM): NaCl 120, CsCl 5, CaCl2 2, MgCl2 1, TEA Cl 15, 4-aminopyridine 5, HEPES 10 and glucose 25, pH 7.4, 320 mOsm/kg H2O. The pipette solution contained (in mM): N-methyl-D-glucamine chloride 120, Cs4BAPTA 5 and Mg-ATP 5. The ATP regeneration system Tris phosphocreatine (20 mM) and creatine kinase were added to minimize GABA rundown. All drugs were obtained from Sigma Chemical Co, (St. Louis, Mo.), except for BAPTA (Calbiochem, San, Diego, Calif.).
Peak currents were calculated for all drug concentrations as relative to the current gated by 10 μM GABA alone using the equation: ([peak current: GABA+ETOH]−[peak current: GABA alone])/[peak current: GABA alone]. Currents were recorded using an Axopatch 1D amplifier (Axon Instruments) filtered at 2 kHz (four-pole Bessel filter) and detected at 500 Hz (pClamp 5.1).
Following progesterone withdrawal or control conditions, pyramidal cells were acutely isolated from CA1 hippocampus as described (65,64). GABA-gated Cl^− currents were recorded using whole cell patch clamp techniques at a holding potential of −50 mV.

female Long Evans rats = assay: Acoustic startle response (ASR); assay type: in vivo, rat; details: THIP 3 mg/kg i.p.
Experimental: Animals were tested in a stabilimeter device (SR-Lab Startle Response System, San Diego Instruments, Inc., San Diego, Calif.) that permits vertical movement of a Plexiglas platform contained within a lit, well-ventilated sound-attenuating chamber (26). The amplitude of movement is detected by a piezoelectric device with a voltage output proportional to platform displacement. The analog output of the accelerometer is then amplified and digitized before computer analysis. Five minutes after i.p. administration of 10% ethanol (0.05-1.6 g/kg) or saline vehicle (1.5 ml volume) or 25 minutes after 4,5,6,7-tetrahydroisoxazolo[5,4-c]pyridin-3-ol injection (3 mg/kg, i.p.), animals were placed in the chamber for a 5 minutes acclimation period. […] Four acoustic stimuli (116 dB, 40 ms duration) were then presented at random intervals once every 10-15 seconds via a white-noise generator through speakers positioned on either side of the cage. […] For each acoustic stimulus, the amplitude and integrated response (amplitude and duration) were determined and normalized to the weight of the animal. Values for the integrated response after administration of each dose of ethanol or 4,5,6,7-tetrahydroisoxazolo[5,4-c]pyridin-3-ol were averaged and expressed as a fraction of the saline control average for the indicated treatment (progesterone withdrawal versus control) group in order to minimize variability between groups. […] It is also routinely used to assess behavioral excitability after withdrawal from BDZs and ethanol (73).
Animals were tested in a stabilimeter device (SR-Lab Startle Response System, San Diego Instruments, Inc.) that permitted vertical movement of a Plexiglas cage contained within a lit, well-ventilated, sound-attenuating chamber. The amplitude of movement was detected by a piezoelectric device with a voltage output proportional to cage displacement. The analog output of the accelerometer was amplified and digitized before computer analysis (15). Five minutes following intraperitoneal administration of alcohol (0.2 or 0.4 g/kg) or saline vehicle (1.5 ml volume), animals were placed in the chamber for 5 a minute acclimation period. Five acoustic stimuli (116 dB, 40 msec duration) were then presented once every 10-15 seconds via a white-noise generator through speakers positioned on either side of the cage. For each acoustic stimulus, the integrated response (amplitude and duration) was averaged across a 100 msec post-stimulus time period and the response latency determined. Both values were normalized to the weight of the animal. Values for the integrated response for the first noise stimulus following administration of each dose of alcohol were averaged and expressed as a fraction of the saline control average for the indicated treatment (P Wd versus control) group. […] It is routinely used to assess behavioral excitability following withdrawal from benzodiazepiness (48) and alcohol (73), and is known to be modified by GABA modulators, such as diazepam (11), and by local infusion of excitatory compounds into dorsal hippocampus (85).

α4β2δ GABAA receptors [4] = molecular target: T1, α4β2δ GABAA receptors; details: α4βδ receptors (ref. 6); cited from earlier work
[5] = molecular target: T2, α1β2δ receptors (oocytes injected with α1+β2+δ) (Rattus norvegicus, UniProt P62813+P63138); assay type: cell-based, human δ, expressed in Xenopus laevis oocytes; details: 1 μM zinc; the other 15 oocytes injected with α1+β2+δ
T2 construct: expressed in transfected cells; host or cells: oocytes injected with cRNA (Xenopus laevis is named only)
From the text: (§3) Plasmids with inserts encoding GABAA receptor subunit sequence for rat α1 (62), rat β2 (83), rat α2 (62), rat α5 (62), mouse α4 (37), mouse β3 (82), rat β1 (83), rat γ2S (63), human δ (12), and human ε (11) were produced by subcloning each separately into an appropriate cloning vehicle such as PCDM8, pCDNA3.1 or pGHEMHE vectors (Invitrogen, Carlsbad Calif.) using a T7 promoter and standard subcloning techniques (59). Plasmids were linearized with an appropriate restriction enzyme at a site 3′ to the insert and cRNAs were synthesized using T3 or T7 polymerase (mMessage mMachine, Ambion, Tex.). The size of the cRNA was verified and RNA was quantified by ethidium bromide staining after electrophoresis on 1% agarose gels.
(§4) The preparation, injection, and maintenance of oocytes were carried out as described previously (78). Oocytes were injected with receptor subunit cRNAs (2 to 20 ng) in the following ratios: α1:β1:γ2S, α1:β2:γ2S and α1:β1:ε1, 1:1:1; α2:β1:γ2S, α5:β1:γ2S, α4:β1:γ2S, and α4:β2:γ2S, 10:1:1; α4:β1:δ, α4:β2:δ, α4:β3δ, 10:1:10; α1:β2:δ, 1:1:10 or 1:0.5:3; α1:β1:δ, 1:1:10 or 1:0.5:3; α2:β1:δ and α2:β2:δ, 1:0.5:3; α1:β1, α1:β2, α2:β1, α2:β2, β2:γ2S and α4δ, 1:1, α4:β1, α4:β2, α4:β3, 10:1, β2δ, 1:10.
(§5) Voltage-clamp recording was carried out 1 to 3 days after injection of cRNAs. Electrodes were filled with 3 M KCl and had resistances of 0.4-4 MΩ. Oocytes were positioned in a small Perspex chamber and continuously superfused with a saline solution (100 mM NaCl, 2 mM KCl, 1.8 mM CaCl2, 10 mM HEPES, pH 7.5). Agonists and modulators were both applied in the same saline solution. Oocytes were voltage-clamped at −70 mV and macroscopic currents were recorded with a two-electrode voltage-clamp using a Warner Instruments OC-725 amplifier as described previously (79). Currents were recorded on a chart recorder or by using Axograph on a Macintosh computer.
(§6) Other subunits (α1, α2, β1, β2) were tested for co-expression with the δ subunit. […]

[6] = molecular target: T3, α1β2δ receptors (oocytes injected with α1+β2+δ) (UniProt O14764+P62813+P63138); assay type: cell-based, rat α1, rat β2, human δ, expressed in Xenopus laevis oocytes; details: 1 μM zinc; 7 of 22 oocytes injected with α1+β2+δ
T3 construct: expressed in transfected cells; host or cells: oocytes injected with cRNA (Xenopus laevis is named only)
From the text: as §3, §4, §5, §6

α1β2 receptors = molecular target: T4, α1β2 receptors (Rattus norvegicus, UniProt P62813+P63138); assay: Two-electrode voltage-clamp of recombinant GABAA receptors in oocytes; assay type: cell-based, expressed in Xenopus laevis oocytes; details: 1 μM zinc; n=5
T4 construct: expressed in transfected cells; host or cells: oocytes injected with cRNA (Xenopus laevis is named only)
From the text: as §3
The preparation, injection, and maintenance of oocytes were carried out as described previously (78). […]
Voltage-clamp recording was carried out 1 to 3 days after injection of cRNAs. […] Oocytes were voltage-clamped at −70 mV and macroscopic currents were recorded with a two-electrode voltage-clamp using a Warner Instruments OC-725 amplifier as described previously (79). Currents were recorded on a chart recorder or by using Axograph on a Macintosh computer. […]

GABAR α4 subunit = assay: Western blot of α4 subunit in hippocampus after steroid and ethanol administration; assay type: in vivo, rat; details: 48 hours of exposure to 3α,5β-THP (10 mg/kg i.p.), saline
Experimental: as §1, §2
Hippocampi removed from steroid or vehicle-treated animals were homogenized, and membranes prepared as previously described (65). Following electrophoresis on 8% SDS polyacrylamide gels, membranes were transferred to a nitrocellulose membrane (Bio-Rad, Hercules, Calif.). α4 subunit levels were detected by evaluating the band density at 67 kDa after probing with a polyclonal antibody (64). Membranes were incubated for 1-2 hours at room temperature with a 1:5000 dilution of horseradish peroxidase-conjugated donkey anti-rabbit IgG (Amersham, Arlington Heights, Ill.), and visualized with enhanced chemiluminescence with varying concentrations of protein in the linear range. Immunoreactive band densities were quantified using a CCD camera (UMAX Scanner) and one-Dscan software, which uses multiple Gaussian fits to achieve accurate band density profiles.

T1 sequence (Q9D6F4 36-552): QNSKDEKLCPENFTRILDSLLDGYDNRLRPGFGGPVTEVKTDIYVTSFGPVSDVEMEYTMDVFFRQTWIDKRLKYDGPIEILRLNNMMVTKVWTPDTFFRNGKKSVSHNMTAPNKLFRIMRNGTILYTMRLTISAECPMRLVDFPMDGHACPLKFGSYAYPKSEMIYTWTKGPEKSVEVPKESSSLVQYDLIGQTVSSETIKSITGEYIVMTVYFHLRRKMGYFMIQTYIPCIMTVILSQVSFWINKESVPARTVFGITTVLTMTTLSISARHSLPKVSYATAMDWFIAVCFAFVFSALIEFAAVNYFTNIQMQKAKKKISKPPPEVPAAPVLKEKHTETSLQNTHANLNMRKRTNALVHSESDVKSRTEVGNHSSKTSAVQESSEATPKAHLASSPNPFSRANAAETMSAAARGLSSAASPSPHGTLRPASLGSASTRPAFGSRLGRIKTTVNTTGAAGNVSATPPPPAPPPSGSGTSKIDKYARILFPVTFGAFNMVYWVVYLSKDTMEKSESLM
T1 sequence (P63138 25-474 limits assumed): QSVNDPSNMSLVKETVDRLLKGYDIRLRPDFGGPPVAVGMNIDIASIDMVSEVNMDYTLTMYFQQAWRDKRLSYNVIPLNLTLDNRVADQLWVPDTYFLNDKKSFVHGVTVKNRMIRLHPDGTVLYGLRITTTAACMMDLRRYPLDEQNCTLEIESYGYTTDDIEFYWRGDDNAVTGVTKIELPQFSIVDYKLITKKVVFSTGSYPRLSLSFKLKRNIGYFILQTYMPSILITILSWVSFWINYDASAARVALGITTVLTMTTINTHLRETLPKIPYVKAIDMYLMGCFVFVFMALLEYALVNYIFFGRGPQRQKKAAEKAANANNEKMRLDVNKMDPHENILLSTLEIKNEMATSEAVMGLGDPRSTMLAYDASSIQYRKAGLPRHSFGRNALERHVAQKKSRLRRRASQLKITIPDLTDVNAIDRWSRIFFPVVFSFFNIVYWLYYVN
T1 sequence (O14764 17-452 limits assumed): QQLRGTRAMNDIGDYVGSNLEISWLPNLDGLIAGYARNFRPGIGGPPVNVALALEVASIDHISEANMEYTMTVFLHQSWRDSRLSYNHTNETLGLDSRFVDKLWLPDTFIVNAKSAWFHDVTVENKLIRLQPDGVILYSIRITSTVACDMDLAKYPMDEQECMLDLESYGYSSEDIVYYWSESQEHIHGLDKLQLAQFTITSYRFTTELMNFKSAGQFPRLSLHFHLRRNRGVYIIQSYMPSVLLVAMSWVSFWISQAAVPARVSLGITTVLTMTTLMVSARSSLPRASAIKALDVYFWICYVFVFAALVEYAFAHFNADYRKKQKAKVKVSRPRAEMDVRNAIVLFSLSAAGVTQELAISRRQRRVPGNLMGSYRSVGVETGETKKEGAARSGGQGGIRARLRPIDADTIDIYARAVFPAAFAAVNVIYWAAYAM
T3 sequence (P62813 28-455): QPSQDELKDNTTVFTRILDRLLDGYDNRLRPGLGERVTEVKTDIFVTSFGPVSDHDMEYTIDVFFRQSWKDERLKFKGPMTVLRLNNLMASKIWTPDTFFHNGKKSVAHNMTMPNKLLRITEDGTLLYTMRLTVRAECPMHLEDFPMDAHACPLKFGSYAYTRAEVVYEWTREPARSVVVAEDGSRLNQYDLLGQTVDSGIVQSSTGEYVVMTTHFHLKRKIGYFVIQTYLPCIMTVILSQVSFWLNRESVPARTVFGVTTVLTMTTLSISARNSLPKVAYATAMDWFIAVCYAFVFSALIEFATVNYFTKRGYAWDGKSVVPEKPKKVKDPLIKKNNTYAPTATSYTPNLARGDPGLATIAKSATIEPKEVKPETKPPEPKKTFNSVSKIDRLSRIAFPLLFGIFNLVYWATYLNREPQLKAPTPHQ
T3 sequence (P63138 26-474): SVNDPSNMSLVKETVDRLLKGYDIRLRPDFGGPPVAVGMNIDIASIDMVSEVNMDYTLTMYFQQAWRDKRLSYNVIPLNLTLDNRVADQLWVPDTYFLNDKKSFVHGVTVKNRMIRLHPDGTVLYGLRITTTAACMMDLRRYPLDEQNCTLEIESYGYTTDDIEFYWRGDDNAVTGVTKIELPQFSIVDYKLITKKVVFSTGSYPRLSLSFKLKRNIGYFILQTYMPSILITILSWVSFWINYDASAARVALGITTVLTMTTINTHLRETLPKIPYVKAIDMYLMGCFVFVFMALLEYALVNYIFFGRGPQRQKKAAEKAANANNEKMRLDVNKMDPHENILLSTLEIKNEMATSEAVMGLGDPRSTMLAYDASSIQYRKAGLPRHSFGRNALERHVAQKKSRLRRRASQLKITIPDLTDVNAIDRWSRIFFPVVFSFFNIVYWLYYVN
T3 sequence (O14764 25-452): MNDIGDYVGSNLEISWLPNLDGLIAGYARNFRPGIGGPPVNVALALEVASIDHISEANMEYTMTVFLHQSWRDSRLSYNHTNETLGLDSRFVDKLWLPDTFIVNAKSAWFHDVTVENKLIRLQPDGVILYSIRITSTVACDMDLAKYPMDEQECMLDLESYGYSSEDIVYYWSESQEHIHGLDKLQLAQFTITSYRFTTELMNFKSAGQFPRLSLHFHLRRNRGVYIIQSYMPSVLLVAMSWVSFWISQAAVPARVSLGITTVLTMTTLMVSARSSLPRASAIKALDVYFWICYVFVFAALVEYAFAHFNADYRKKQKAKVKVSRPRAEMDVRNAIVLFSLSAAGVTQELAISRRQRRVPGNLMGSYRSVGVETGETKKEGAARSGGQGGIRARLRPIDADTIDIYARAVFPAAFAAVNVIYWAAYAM
T4 sequence (P62813 28-455): as the sequence (P62813 28-455) above
T4 sequence (P63138 25-474 limits assumed): as the sequence (P63138 25-474 limits assumed) above
T2 sequence (P62813 28-455): as the sequence (P62813 28-455) above
T2 sequence (P63138 26-474): as the sequence (P63138 26-474) above

O=C1Nc2ccc(Cl)cc2C(c2ccccc2Cl)=NC1O (stereo not shown) [LZM, lorazepam]
maximal potentiation of GABA-gated current ([1]; 10 μM LZM, 48 h 3α,5β-THP with 2 h ethanol): 90% | potentiation of GABA-gated current ([1]; 10 μM LZM, 48 h 3α,5β-THP, saline-treated rats): 12-15% | LZM-induced potentiation of GABA-gated current ([1]; 2 hours of ethanol after progesterone withdrawal): robust

[La] [lanthanum]
inhibition of currents at α4β2δ receptors (α4β2δ GABAA receptors [2]; La3+ 300 μM): 80%

Oc1noc2c1CCNC2 [THIP, 4,5,6,7-tetrahydroisoxazolo[5,4-c]pyridin-3-ol]
ratio of currents induced by THIP:GABA (α4β2δ GABAA receptors [2]; oocytes injected with α4+β2+δ subunits): 1.24 | efficacy of THIP relative to GABA (maximum current) [3]: increased efficacy | attenuation of ASR (female Long Evans rats; P withdrawn animals): 70% | increase of ASR (female Long Evans rats; control animals): about 40% | maximum current compared to that gated by GABA at α4βδ (α4β2δ GABAA receptors [4]): greater maximum current

[Zn] [zinc]
zinc inhibition of GABA currents [5]: 66.4±6.4% | zinc inhibition of GABA currents [6]: 49.1±6.4% | zinc inhibition of GABA currents (α1β2 receptors): 72.4±6.9%

CC(=O)[C@H]1CC[C@H]2[C@@H]3CC[C@@H]4C[C@H](O)CC[C@]4(C)[C@H]3CC[C@]12C [3α, 5β-THP]
increase of α4 expression compared to control (GABAR α4 subunit): threefold
